Publication PMC5980230, “Mucosal absorption of therapeutic peptides by harnessing the endogenous sorting of glycosphingolipids” (eLife, 2018)
“And” between values parts separate entries of the source, which are not always exact repeats. Equal values may be shown once.

Key:
[1] = Intraperitoneal glucose tolerance test; format: in vivo; design: unit not given here; settings: IP injected, individual mice, not corrected
Excerpt: To test for absorption and biologic incretin activity in vivo, we gastrically gavaged equal doses (10 nmol/kg) of the C6:0-GM1-GLP-1 fusion, the unfused GLP-1 peptide (GLP-1 oral), or vehicle into wild-type mice and measured effects on glucose metabolism by glucose tolerance test (Figure 5C). […] The effect on glucose tolerance by gastrically administered C6:0-GM1-GLP-1 was similar to the effect achieved by the intraperitoneal injection of GLP-1 peptide alone, implicating an equally high level of bioavailability for the gastrically-delivered GM1-fusion molecule (Figure 5D).
For intraperitoneal glucose tolerance tests, a 10 nmol/kg dose was used to gavage overnight-fasted WT C57/BL/6 mice (male 7–9 weeks old) with GM1-GLP-1 fusion molecules or unfused GLP-1. Glucose measurements following i.p administration of 2 mg/g glucose solution were obtained from tail vein blood applied directly to glucose strips as in ([te Welscher et al., 2014]).

[2] = GLP-1 in blood by streptavidin capture and luciferase bioassay; format: in vivo; settings: individual mice, Ex 3 excluded from Figure 5E
Excerpt: We confirmed intestinal absorption of the C6:0-GM1-GLP-1 into the systemic circulation in two ways. First, we measured GLP-1 activity in blood samples by streptavidin capture and quantitative luciferase bioassay (Figure 5E). […] In a second approach, we synthesized an all D-amino acid (non-degradable) isomer of GLP-1 coupled to AF488 to allow for direct quantitative measurement of the […] isomer in the blood using the same streptavidin capture assay as described for our reporter peptide (Figure 5A). Again, we find evidence for absorption of the GLP-1 cargo when fused to the C6:0-GM1 transport vehicle, but no absorption for the unfused GLP-1 peptide (Figure 5F). These experiments were performed in two different laboratories, using two different animal facilities with the same results. In all assays (Figure 5C–5F), we find the efficiency of intestinal absorption enabled by fusion to C6:0-GM1 was again almost as efficient as for IP injection of the peptide alone, implicating a high level of bioavailability for the GM1-fusion molecules applied by gastric gavage.

[3] = oral, 15 min after gastric gavage

GLP-1
total area under glucose tolerance curves (AUC) [1]: 2184 and 5775 and 3223 and 5783 and 10013 and 10613 and 14078 and 12630 and 14685 and 4613 and 1628 and 6533 and 2735 and 13695 and 6728 and 15120 and 10928 and 9270 and 7061 and 9383 and 7166 and 10043 and 10253 | GLP-1 in blood, corrected for vehicle ([2]; IP-injected): 6.787 fmols per 100uls blood and 7.191 fmols per 100uls blood and 4.472 fmols per 100uls blood and 6.8463 fmols per 100uls blood and 3.406 fmols per 100uls blood and 4.493 fmols per 100uls blood and 6.695 fmols per 100uls blood and 7.88 fmols per 100uls blood and 13.0711 fmols per 100uls blood and 7.126 fmols per 100uls blood | GLP-1 in blood, raw data not corrected for vehicle ([2]; IP-injected): 8.132 fmols in 100 uls blood and 10.5063 fmols in 100 uls blood and 7.066 fmols in 100 uls blood and 8.153 fmols in 100 uls blood and 6.729 fmols in 100 uls blood and 7.914 fmols in 100 uls blood and 21.2711 fmols in 100 uls blood and 15.3265 fmols in 100 uls blood and 7.237 fmols in 100 uls blood and 7.641 fmols in 100 uls blood | GLP-1 in blood, corrected for vehicle [2, 3]: 0.3766 fmols per 100uls blood and 0.3584 fmols per 100uls blood and 0.3383 fmols per 100uls blood and 0.4572 fmols per 100uls blood and -1.003 fmols per 100uls blood and -1.627 fmols per 100uls blood and 2.205 fmols per 100uls blood and 0.253 fmols per 100uls blood and 1.235 fmols per 100uls blood and 0.303 fmols per 100uls blood and -0.01924 fmols per 100uls blood and 0.2681 fmols per 100uls blood and -0.002238 fmols per 100uls blood and -1.223 fmols per 100uls blood and 0.4322 fmols per 100uls blood and -3.718 fmols per 100uls blood | GLP-1 in blood, raw data not corrected for vehicle [2, 3]: 2.657 fmols in 100 uls blood and 2.033 fmols in 100 uls blood and 5.865 fmols in 100 uls blood and 3.913 fmols in 100 uls blood and 4.895 fmols in 100 uls blood and 3.963 fmols in 100 uls blood and 0.01476 fmols in 100 uls blood and 0.3021 fmols in 100 uls blood and 0.03176 fmols in 100 uls blood and 6.977 fmols in 100 uls blood and 8.632 fmols in 100 uls blood and 4.482 fmols in 100 uls blood and 0.8266 fmols in 100 uls blood and 0.8084 fmols in 100 uls blood and 0.7883 fmols in 100 uls blood and 0.9072 fmols in 100 uls blood
